Reference: ChEMBL document CHEMBL1201862, “PubChem BioAssay data set” (2004)
The source made the active and inactive calls.

Assays:
[1] = target: Large T antigen (Simian virus 40, UniProt P03070); experiment: A confirmatory biochemical assay using the ADP-Hunter methodology, purified TAg, and ATP to quantify activity of synthesized compounds that inhibit the ATPase activity of Tag (3). [Related pubchem assays (depositor defined):AID1903, AID1909, AID2102, AID2501, AID2615, AID2775, AID435001, AID449729]; parameters: species or system Betapolyomavirus macacae
[2] = SV40 cytopathic effect inhibition and cytotoxicity, confirmation, BSC cells, set 3 (AID 485276); assay type: functional, cell-based
[3] = growth suppression of PTEN-null colon cells, dose response, cell-based, HCT116 PTEN knockout (AID 1047); assay type: functional;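 further: HCT116 colon tumor cells with PTEN knocked out; cells exposed to compound for 60 hours before readout; potency for loss of cell viability measured by luminescence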
[4] = target: Luciferin 4-monooxygenase (Photinus pyralis, UniProt P08659); experiment: Counter Screen for Luciferase-based Assay Positives. [Related pubchem assays: 620, 618, 411 ]
[5] = growth suppression of beta-catenin-knockout colon cells, dose response, cell-based, HCT116, human colon tumor (AID 1045); assay type: functional;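 further: HCT116 colon tumor cells with beta catenin knocked out; cells exposed to compound for 60 hours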
[6] = target: Sphingosine 1-phosphate receptor 2 (Homo sapiens, UniProt O95136); experiment: Dose Response Cell Based Assay for Agonists of the S1P2 Receptor. [Related pubchem assays: 729, 736, 843 ]; assay type: functional
[7] = target: Sphingosine 1-phosphate receptor 4 (Homo sapiens, UniProt O95977); experiment: Fluorescence dose response cell-based high throughput screening assay for agonists of the Sphingosine 1-Phosphate Receptor 4 (S1P4). [Related pubchem assays: 1509 (Primary screen.), 1523 (Confirmation screen in triplicates.)]; assay type: functional
[8] = tested on: HT-1080; experiment: cytotoxicity in HT1080 fibrosarcoma cells, cell-based, fluorescence readout (AID 620); assay type: functional; conditions: Homo sapiens
[9] = target: Sphingosine 1-phosphate receptor 1 (Homo sapiens, UniProt P21453); experiment: Fluorescence-based counterscreen assay for S1P4 agonists: Cell-based dose response high throughput screening assay to identify agonists of the Sphingosine 1-Phosphate Receptor 1 (S1P1). [Related pubchem assays (depositor defined):AID1509, AID1523, AID1801, AID463107, AID463118, AID463119, AID463122, AID463123, AID463129, AID463225, AID504400, AID504460]; assay type: functional
[10] = target: Troponin, cardiac muscle (Homo sapiens, UniProt P19429+P45379+P63316); experiment: Fluorescence-based biochemical high throughput dose response assay for activators of the calcium sensitivity of cardiac Regulated Thin Filaments (RTF). [Related pubchem assays (depositor defined):AID493008, AID493018, AID504382, AID504383]; assay type: protein-complex assay
[11] = target: T1, Corticotropin-releasing factor receptor 2/Corticotropin-releasing factor-binding protein (Homo sapiens, UniProt P24387+Q13324); experiment: activators of CRF receptor 2 with binding protein – uHTS hits, confirmation (AID 602473); assay type: functional; conditions: read-out: EC50_Mean
T1 sequence (Q13324 whole entry): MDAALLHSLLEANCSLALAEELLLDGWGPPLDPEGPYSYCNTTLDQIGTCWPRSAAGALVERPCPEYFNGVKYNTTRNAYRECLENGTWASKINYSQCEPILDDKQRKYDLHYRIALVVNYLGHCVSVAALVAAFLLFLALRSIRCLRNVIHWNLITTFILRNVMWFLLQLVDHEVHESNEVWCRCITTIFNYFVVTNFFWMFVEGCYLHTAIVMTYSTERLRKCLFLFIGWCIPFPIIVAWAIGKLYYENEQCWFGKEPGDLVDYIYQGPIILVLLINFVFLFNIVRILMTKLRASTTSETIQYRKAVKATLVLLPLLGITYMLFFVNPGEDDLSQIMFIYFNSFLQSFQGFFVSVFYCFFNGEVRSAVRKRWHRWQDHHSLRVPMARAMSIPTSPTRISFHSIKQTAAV
T1 sequence (P24387 whole entry): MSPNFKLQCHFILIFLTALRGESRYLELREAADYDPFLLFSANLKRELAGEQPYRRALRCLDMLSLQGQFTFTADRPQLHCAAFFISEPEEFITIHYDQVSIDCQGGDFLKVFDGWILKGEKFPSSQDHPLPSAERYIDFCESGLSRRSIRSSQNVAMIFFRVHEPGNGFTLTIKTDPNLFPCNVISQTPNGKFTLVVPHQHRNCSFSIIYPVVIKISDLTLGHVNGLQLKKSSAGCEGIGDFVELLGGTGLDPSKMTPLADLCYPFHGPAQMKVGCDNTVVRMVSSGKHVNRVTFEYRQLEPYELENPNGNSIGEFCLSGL

[12] = cytotoxicity toward DRD oncogenic fibroblasts, dose response, cell-based, non-viral oncogenic, luminescence (AID 1934); assay type: functional; conditions: Homo sapiens
[13] = target: T2, Apoptotic protease-activating factor 1 (Homo sapiens, UniProt O14727); assay type: functional
T2 sequence (O14727 whole entry): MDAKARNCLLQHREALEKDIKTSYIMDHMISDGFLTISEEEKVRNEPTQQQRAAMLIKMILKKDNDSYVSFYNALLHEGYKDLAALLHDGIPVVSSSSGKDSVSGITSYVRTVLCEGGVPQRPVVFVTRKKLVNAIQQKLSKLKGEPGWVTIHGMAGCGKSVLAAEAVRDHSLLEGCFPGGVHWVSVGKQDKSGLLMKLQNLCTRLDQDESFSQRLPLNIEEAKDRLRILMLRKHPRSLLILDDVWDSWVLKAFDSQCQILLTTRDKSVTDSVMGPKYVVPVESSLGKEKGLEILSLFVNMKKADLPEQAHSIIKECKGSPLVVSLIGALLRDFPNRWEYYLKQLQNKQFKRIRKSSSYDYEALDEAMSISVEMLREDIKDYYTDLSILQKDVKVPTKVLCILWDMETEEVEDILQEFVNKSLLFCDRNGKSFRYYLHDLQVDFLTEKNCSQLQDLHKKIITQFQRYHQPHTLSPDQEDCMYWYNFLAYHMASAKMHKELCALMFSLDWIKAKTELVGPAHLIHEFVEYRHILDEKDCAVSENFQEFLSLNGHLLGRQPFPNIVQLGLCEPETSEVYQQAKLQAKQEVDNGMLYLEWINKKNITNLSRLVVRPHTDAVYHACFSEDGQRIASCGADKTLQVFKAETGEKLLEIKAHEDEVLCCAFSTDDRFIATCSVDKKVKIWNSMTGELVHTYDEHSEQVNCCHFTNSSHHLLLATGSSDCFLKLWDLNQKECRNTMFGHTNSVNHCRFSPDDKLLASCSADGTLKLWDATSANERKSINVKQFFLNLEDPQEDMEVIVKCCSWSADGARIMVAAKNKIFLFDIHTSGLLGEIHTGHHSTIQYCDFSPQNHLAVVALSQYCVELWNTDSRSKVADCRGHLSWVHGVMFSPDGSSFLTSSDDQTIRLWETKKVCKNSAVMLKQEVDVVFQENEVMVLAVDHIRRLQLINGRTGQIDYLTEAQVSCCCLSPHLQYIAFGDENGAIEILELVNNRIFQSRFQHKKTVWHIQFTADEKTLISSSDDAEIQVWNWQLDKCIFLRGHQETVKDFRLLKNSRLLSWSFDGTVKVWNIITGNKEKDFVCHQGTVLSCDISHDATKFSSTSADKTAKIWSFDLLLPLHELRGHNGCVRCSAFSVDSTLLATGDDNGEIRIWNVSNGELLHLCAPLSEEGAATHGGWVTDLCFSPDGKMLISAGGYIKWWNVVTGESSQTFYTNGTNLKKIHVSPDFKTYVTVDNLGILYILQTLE

[14] = NIH-3T3 fibroblast cytotoxicity, dose response, cytotoxicity control, cell-based, fluorescence, Alamar Blue, secondary assay (AID 2327); assay type: functional;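 further: NIH-3T3 mouse fibroblasts cultured with fluconazole at 8 µg/mL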
[15] = inhibitors of firefly luciferase expression or activity, dose response, H4 neuroglioma cells, luminescence (AID 1990); assay type: functional, cell-based
[16] = Luminescence Cell-Based Dose Response HTS to Identify Inhibitors of 5'UTR Stem-Loop Driven Prion Protein mRNA Translation in H4 Neuroglioblastoma Cells. [Related pubchem assays: 1827 (Project Summary), 1813 (Primary HTS)]; assay type: functional
[17] = tested on: BJ; experiment: cells; assay type: functional, cell-based; conditions: Homo sapiens
[18] = tested on: INS1; experiment: beta cell apoptosis inhibitors, cytokine rescue, dose response, luminescence, retest (AID 449756); assay type: functional, cell-based; conditions: Rattus norvegicus;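 further: cell death triggered by IL-1 beta plus TNF-alpha plus IFN-gamma mixture; protective hits raise ATP signal compared with cytokine alone wells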
[19] = target: T3, Hexokinase HKDC1 (Homo sapiens, UniProt Q2TB90); experiment: HKDC1 hexokinase activators, dose response, biochemical, W721R variant (AID 504730); assay type: functional
T3 sequence (Q2TB90 whole entry): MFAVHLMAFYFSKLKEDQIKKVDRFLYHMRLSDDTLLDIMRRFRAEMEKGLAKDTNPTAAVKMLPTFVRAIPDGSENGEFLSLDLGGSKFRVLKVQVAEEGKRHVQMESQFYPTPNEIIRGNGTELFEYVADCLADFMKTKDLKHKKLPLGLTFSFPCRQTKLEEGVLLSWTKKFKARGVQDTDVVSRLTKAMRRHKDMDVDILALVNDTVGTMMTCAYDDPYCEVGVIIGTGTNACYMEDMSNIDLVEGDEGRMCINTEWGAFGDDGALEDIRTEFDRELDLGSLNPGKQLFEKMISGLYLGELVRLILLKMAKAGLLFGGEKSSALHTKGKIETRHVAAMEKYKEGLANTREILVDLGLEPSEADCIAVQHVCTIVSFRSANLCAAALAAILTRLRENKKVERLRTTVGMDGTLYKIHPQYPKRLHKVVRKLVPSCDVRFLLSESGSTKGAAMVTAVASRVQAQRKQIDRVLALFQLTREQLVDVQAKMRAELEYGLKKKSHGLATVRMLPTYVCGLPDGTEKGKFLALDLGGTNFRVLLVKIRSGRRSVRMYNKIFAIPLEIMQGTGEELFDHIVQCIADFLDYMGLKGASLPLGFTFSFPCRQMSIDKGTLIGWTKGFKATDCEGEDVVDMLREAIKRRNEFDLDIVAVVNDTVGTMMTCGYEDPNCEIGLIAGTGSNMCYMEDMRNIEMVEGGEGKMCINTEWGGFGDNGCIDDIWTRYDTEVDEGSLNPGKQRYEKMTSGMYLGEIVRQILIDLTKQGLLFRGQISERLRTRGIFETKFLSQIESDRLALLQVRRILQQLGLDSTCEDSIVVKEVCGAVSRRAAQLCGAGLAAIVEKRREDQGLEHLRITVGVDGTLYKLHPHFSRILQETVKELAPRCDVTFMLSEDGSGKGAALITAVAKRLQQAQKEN

[20] = tested on: HEK293; experiment: inhibitors of LMP1-driven NF-kB reporter, dose response, cell-based, HEK293, luciferase, cherry-pick (AID 588343); assay type: functional; conditions: Homo sapiens
[21] = tested on: BJ; experiment: cytotoxicity toward BJ-TERT fibroblasts, dose response, cell-based, RAS-independent, luminescence (AID 1933); assay type: functional; conditions: Homo sapiens
[22] = C. albicans growth with fluconazole, confirmation, fluorescence, retest (AID 2467); assay type: functional, cell-based
[23] = target: Hexokinase-1 (Homo sapiens, UniProt P19367); experiment: hexokinase 1 activators, dose response, selectivity assay for HKDC1 activator project, biochemical (AID 504762); assay type: functional
[24] = tested on: BJ; experiment: cytotoxicity toward Ras-transformed BJeLR fibroblasts, dose response, cell-based, alamar blue fluorescence, cherrypicked samples (AID 2631); assay type: functional; conditions: Homo sapiens;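 further: confirmatory dose-response assay in RAS-dependent BJ fibroblasts engineered with TERT, LT and ST, with cytotoxicity read by fluorescence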
[25] = inhibitors of SNCA 5'UTR-driven reporter translation, confirmation, H4 neuroglioma cells, luminescence (AID 1988); assay type: functional, cell-based
[26] = cytotoxicity in HEK-293T cells, dose response, cytotoxicity control for TCR NF-kB inhibitor project, luminescence, T-cell screen hits (AID 489026); assay type: functional, cell-based;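 further: cells exposed to compound about 14 hours before the viability readout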
[27] = target: Intestinal-type alkaline phosphatase (Homo sapiens, UniProt P09923); experiment: human intestinal alkaline phosphatase activators, dose response, biochemical, luminescence, uHTS hits (AID 463120); assay type: functional
[28] = target: T4, Type-1 angiotensin II receptor (Homo sapiens, UniProt P30556); experiment: AT1 receptor agonists, dose response, selectivity assay for APJ receptor agonist project, cell-based, uHTS hits (AID 488865); assay type: functional;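 further: beta-arrestin recruitment to AT1 measured by enzyme fragment complementation luminescence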
T4 sequence (P30556 whole entry): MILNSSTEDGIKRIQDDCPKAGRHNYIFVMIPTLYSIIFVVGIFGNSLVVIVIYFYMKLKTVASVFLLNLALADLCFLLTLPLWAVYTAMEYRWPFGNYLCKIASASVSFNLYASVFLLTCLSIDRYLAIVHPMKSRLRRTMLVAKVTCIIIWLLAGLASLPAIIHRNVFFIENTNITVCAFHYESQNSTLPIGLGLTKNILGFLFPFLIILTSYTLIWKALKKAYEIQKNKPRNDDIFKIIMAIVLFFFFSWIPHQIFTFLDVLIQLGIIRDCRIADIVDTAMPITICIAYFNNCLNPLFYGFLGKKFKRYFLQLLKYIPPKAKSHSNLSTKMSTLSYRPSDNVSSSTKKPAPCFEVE

Luciferin 4-monooxygenase, sequence (P08659 whole entry): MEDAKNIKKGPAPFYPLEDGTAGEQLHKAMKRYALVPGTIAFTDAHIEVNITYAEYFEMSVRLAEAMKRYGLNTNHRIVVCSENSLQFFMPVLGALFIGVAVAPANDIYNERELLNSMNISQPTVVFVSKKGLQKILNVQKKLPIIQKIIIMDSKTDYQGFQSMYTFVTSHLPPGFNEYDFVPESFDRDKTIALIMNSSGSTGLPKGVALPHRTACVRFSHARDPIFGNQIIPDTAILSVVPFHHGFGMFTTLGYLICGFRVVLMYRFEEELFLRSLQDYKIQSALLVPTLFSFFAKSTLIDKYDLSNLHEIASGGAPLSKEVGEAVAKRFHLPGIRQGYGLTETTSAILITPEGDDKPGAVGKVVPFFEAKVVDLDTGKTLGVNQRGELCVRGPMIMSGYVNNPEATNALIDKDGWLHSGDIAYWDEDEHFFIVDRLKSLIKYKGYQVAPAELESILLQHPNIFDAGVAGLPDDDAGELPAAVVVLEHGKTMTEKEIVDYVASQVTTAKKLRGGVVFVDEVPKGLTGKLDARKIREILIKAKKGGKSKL
Sphingosine 1-phosphate receptor 4, sequence (O95977 whole entry): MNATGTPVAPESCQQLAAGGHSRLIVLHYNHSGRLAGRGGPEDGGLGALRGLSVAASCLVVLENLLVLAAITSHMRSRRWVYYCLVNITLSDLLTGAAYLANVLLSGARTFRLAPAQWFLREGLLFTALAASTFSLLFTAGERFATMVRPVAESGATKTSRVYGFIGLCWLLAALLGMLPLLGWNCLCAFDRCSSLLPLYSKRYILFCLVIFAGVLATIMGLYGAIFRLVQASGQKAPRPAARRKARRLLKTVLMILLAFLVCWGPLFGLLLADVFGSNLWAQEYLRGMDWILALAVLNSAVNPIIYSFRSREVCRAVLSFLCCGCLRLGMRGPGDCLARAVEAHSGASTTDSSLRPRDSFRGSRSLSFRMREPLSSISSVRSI
Sphingosine 1-phosphate receptor 1, sequence (P21453 whole entry): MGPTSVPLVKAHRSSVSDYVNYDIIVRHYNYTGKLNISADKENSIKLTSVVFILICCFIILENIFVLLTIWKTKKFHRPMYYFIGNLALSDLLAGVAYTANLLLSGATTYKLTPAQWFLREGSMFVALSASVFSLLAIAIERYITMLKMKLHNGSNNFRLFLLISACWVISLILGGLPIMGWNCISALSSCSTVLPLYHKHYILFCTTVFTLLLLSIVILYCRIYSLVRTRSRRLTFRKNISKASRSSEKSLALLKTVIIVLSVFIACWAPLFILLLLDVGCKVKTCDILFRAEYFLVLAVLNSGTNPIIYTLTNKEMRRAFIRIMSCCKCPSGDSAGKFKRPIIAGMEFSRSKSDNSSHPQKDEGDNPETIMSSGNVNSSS
Hexokinase-1, sequence (P19367 whole entry): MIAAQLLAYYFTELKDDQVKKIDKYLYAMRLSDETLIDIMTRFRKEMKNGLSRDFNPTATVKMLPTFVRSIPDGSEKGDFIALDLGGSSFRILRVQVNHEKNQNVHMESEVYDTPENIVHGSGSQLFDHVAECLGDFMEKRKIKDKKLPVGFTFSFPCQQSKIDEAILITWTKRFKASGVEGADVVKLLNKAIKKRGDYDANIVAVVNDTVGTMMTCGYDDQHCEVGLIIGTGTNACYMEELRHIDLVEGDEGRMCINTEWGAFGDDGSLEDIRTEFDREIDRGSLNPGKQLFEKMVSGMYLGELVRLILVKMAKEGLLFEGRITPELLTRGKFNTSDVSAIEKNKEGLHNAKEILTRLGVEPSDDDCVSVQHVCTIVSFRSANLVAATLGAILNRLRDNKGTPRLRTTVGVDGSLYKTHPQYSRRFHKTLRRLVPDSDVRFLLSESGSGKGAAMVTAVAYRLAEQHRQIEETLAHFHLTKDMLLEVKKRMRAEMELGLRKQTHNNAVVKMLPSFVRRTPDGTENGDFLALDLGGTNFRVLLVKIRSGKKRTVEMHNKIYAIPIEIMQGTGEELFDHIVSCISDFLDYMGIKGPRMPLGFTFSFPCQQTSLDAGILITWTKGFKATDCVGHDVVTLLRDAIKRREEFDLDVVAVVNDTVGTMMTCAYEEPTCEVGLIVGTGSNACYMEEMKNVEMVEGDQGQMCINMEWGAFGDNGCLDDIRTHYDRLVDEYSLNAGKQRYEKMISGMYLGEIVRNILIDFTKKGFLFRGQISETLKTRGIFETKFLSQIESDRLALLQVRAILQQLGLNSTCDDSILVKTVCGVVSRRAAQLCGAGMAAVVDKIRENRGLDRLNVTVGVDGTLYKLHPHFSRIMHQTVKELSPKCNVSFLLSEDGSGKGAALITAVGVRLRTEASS
Sphingosine 1-phosphate receptor 2, sequence (O95136 whole entry): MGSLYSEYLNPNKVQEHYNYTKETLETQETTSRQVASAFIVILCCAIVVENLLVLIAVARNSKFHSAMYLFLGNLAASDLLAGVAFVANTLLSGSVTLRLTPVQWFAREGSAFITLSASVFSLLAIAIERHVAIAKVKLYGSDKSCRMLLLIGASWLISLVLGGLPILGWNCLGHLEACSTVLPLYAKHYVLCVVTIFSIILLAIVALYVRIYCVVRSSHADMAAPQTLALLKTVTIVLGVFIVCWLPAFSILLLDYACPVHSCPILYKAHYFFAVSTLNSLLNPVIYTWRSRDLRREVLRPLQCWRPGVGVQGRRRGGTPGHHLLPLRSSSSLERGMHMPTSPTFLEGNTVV
Intestinal-type alkaline phosphatase, sequence (P09923 whole entry, the tested form may be a part): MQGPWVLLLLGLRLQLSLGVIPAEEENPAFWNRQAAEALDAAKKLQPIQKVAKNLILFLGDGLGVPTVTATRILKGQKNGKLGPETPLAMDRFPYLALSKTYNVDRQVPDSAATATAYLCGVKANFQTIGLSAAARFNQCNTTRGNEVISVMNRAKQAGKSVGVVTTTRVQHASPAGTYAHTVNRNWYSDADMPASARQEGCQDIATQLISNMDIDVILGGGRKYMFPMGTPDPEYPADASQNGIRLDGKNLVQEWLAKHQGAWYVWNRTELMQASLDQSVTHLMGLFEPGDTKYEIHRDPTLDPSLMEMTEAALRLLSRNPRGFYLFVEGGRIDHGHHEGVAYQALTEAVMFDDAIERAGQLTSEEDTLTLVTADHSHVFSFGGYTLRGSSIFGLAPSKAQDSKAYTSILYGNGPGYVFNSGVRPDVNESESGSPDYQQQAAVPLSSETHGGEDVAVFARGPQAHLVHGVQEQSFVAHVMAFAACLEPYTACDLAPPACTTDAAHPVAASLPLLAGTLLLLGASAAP
Large T antigen, sequence (P03070 whole entry): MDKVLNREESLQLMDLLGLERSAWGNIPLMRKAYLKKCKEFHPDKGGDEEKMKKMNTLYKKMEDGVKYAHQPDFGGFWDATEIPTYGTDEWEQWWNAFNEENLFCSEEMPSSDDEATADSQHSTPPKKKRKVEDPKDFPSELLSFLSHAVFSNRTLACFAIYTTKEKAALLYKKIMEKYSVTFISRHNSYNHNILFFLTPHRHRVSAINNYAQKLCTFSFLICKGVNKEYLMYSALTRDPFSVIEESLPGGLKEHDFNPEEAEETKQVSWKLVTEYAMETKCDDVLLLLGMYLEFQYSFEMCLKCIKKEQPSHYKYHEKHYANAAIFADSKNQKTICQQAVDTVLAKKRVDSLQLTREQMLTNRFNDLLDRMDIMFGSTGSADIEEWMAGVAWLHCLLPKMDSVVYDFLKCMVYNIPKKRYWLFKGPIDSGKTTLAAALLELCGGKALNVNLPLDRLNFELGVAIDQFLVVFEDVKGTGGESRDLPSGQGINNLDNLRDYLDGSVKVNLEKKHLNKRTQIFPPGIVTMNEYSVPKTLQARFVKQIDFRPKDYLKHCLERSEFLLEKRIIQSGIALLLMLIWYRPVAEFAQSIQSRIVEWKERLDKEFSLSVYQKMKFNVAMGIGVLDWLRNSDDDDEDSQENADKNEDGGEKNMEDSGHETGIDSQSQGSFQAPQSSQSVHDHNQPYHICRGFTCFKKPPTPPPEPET

For `CC(C)c1cc(C(C)(C)c2ccc(O)c(C(C)C)c2)ccc1O`, the IC50 [1] was 26700 nM (active) and the IC50 [2] was 11900 nM (active).

In the case of `CN(C)CCCNS(=O)(=O)c1ccc(N2CCC(c3ccc(Cl)cc3)=N2)cc1`, the EC50 [3] is reported as 4530 nM (active), the EC50 [4] is reported as 1040 nM (active) and the EC50 [5] is reported as 4670 nM (active). The EC50 [6] was 338 nM (active), the EC50 [7] was > 614 nM (active) and the EC50 [8] was 14400 nM (active). The EC50 [9] was > 614 nM (active).

In the case of `CCOC(=O)c1sc(-c2ccc(F)cc2)cc1NC(=O)Nc1ccccc1OC`, the EC50 [10] is reported as > 71400 nM (inactive) and the EC50 [11] is reported as > 53000 nM (inactive).

In the case of `Cc1[nH]n(-c2ccccc2)c(=O)c1/C=N/Nc1nncc(-c2ccccc2)n1`, the EC50 [12] is reported as 2390 nM (active), the IC50 [13] is reported as 3500 nM (active) and the EC50 [14] is reported as 2320 nM (active). For the same compound, the EC50 [15] was 733 nM (active), the EC50 [16] was 155 nM (active) and the EC50 [17] was 3060 nM (active). The AC50 [18] was 394 nM (active), the EC50 [19] was 6690 nM (active) and the AC50 [20] was 2450 nM (active). The EC50 [21] was 2760 nM (active), the EC50 [22] was 2540 nM (active) and the EC50 [23] was > 80000 nM (inactive). For the same compound, the EC50 [24] was 471 nM (inconclusive), the EC50 [25] was 173 nM (active) and the IC50 [26] was > 80000 nM (inactive).

In the case of `CCC1CCCCN1C1Sc2ccc(C(=O)OC)cc2NC1=O` (stereo not drawn), the EC50 [27] is reported as > 100000 nM (inactive).

With `CCCCC1=CC2=CC(=O)C(C)(OC(=O)CC)C(=O)C2=CN1c1ccccc1` (stereo not drawn) the EC50 [28] was > 100000 nM (inactive).
